The values below come from patent US4468350A, “KA-6643-Series antibiotics, process for producing same and medical composition containing same” (Kowa Co., Ltd., priority 1980, dated 1984).

Each structure is given as a SMILES string. Converted amounts (≈) assume the structure as drawn. Like-named read-outs stand apart in the source and are kept apart here.

The MIC is the smallest concentration in the dilution series that meets the test's criterion for growth inhibition.

Series [1] has as its system gram-positive and gram-negative bacteria. To be noted: disclosed in Japanese Laid-open Patent Application Nos. 55-139380 and 56-43284; cited from earlier work.
For a further series, the system named is β-lactamase. To be noted: disclosed in Japanese Laid-open Patent Application Nos. 55-139380 and 56-43284; cited from earlier work.
A further series relates to dehydropeptidase. Nature of the series: Decomposition with dehydropeptidase (stability). The class given is in vitro ADME. The settings on record: dehydropeptidase extracted from pig kidney and purified; KA-6643-A given as 1.
Series [2] relates to Enterobacter cloacae IID 977. Kind of series: Antibacterial spectrum, minimum inhibitory concentration. The class given is cell-based. The settings on record: IID977.
In series [3] the test system is Escherichia coli ML-1410R EC-1. Nature of the series: Antibacterial activity-improving action against β-lactam-resistant bacteria (Disc method). To be noted: ML1410REC1, 18 h. The series is classed as cell-based. The method, then:
(1) Antibacterial activity-improving action against β-lactam-resistantbacteria (Disc method):
(§1) In Penassay agar (Kyoei Pharm. Co., Ltd.) in which 200 mcg/ml of aminobenzyl penicillin (AB-PC) was inoculated germs of Escherichia coli ML-1410R EC-1 which β-lactamase-producing organisms, and 10 ml of the inoculated medium were poured on a Petri disch of 9 cm in diameter and solidified to give a test medium.
(§2) On this agar medium were placed pulp discs of 8 mm in diameter into which were respectively introduced […] of aqueous solutions of the substance KA-6643-D with a concentration of 10 mcg/ml followed by culturing at 37° C. for 18 hours and measuring the diameter of an inhibition zone around each disc. For purposes of control, the above experiment was repeated using the same type of medium in which no AB-PC was added.
The synergistic effect of the present substance and Ampicillin (aminobenzylpenicillin, AB-PC) on Escherichia coli which is resistant to Ampicillin was investigated by the disc method similarly to item (II) above with the results shown in Table 2.

The nature of the next series: Solubility in solvents. The series is classed as physicochemical. To be noted: sodium salt.
Series [4] has as its system Pseudomonas aeruginosa NCTC 10490. Nature of the series: Antibacterial spectrum, minimum inhibitory concentration. The class given is cell-based. To be noted: NCTC10490.
The subject of the next series is Proteus vulgaris OX17. The series is described as above. The series is classed as cell-based.
In series [5] the test system is Staphylococcus aureus 209P JC-1. The description is as above. The series is classed as cell-based.
Series [6] has as its system Escherichia coli NIHJ JC-2. Described as above. To be noted: NIHJJC2. The series is classed as cell-based.
Series [7] has as its system Klebsiella pneumoniae PCI-602. The description is as above. The class given is cell-based. The settings on record: PCI602.
Series [8] has as its system Ampicillin-resistant Escherichia coli. Kind of series: Synergistic effect with Ampicillin (AB-PC) on Ampicillin-resistant Escherichia coli (disc method). The class given is cell-based. To be noted: for Inhibitory zone: AB-PC 500 mcg/ml; for Diameter of inhibitory zone: AB-PC added. The method, then:
as §1, §2
The synergistic effect of the present substance and Ampicillin (AB-PC) on the Ampicillin-resistant Escherichia coli was investigated by the disc method similarly to the case of item (II) above, except that AB-PC was used in an amount of 500 mcg/ml.
The synergistic effect of the present substance and Ampicillin (AB-PC) on the Ampicillin-resistant Escherichia coli was investigated by the disc method similarly to the case of item (II) above.

In another series the test system is Proteus inconstants. Nature of the series: Antibacterial spectrum, minimum inhibitory concentration. The class given is cell-based.

In the case of `CC(=O)NC=C[S+]([O-])C1=C(C(=O)O)N2C(=O)C(C(C)(C)O)C2C1` (stereo not shown) [KA-6643-A], the “antibacterial activity against both gram-positive and gram-negative bacteria” value in [1] is “excellent antibacterial activity”. The β-lactamase inhibiting activity entry with β-lactamase was “β-lactamase inhibiting activity”. Moreover, in the series with dehydropeptidase, the “rate of decomposition with dehydropeptidase” value amounted to 1.

For `CC(=O)NC=C[S+]([O-])C1=C(C(=O)O)N2C(=O)C(C(C)(C)OS(=O)(=O)O)C2C1` (stereo not shown) [KA-6643-B], in series [1], the “antibacterial activity against both gram-positive and gram-negative bacteria” value is recorded as “excellent antibacterial activity”. In addition, the β-lactamase inhibiting activity entry in the series on β-lactamase is recorded as “β-lactamase inhibiting activity”.

With `CC(=O)NCCSC1=C(C(=O)O)N2C(=O)[C@@H](C(C)(C)OS(=O)(=O)O)[C@H]2C1` [KA-6643-D], the MIC came to 6.25 µg/mL (≈ 15.3 µM) in series [2]; 25 µg/mL (≈ 61.2 µM) in [4]; 12.5 µg/mL (≈ 30.6 µM) against Proteus vulgaris OX17; 25 µg/mL (≈ 61.2 µM) in series [5]; 3.1 µg/mL (≈ 7.59 µM) in series [6]; 3.1 µg/mL (≈ 7.59 µM) in [7]. Also, the zone of inhibition at 10 µg/mL in [3] (read-out: Diameter of inhibitory zone, present compound 10 mcg/ml, AB-PC 200 mcg/ml in medium, 37° C.) is 22 mm; in [3] (read-out: Diameter of inhibitory zone, present compound 10 mcg/ml, no AB-PC, 37° C.) it was 0 mm. In “Solubility in solvents” (organic solvents such as acetone, chloroform, ethyl acetate and petroleum ether), the “Solubility in organic solvents” value was “substantially insoluble”. The Solubility in water entry in the series “Solubility in solvents” (water) is reported as “Readily soluble”.

`CC(=O)NCCSC1=C(C(=O)O)N2C(=O)[C@@H](C(C)(C)O)[C@H]2C1` [KA-6643-G]: the MIC was greater than 25 µg/mL in series [2]; greater than 25 µg/mL in series [4]; greater than 25 µg/mL in the series with Proteus vulgaris OX17; 6.25 µg/mL (≈ 19 µM) in [5]; greater than 25 µg/mL in series [6]; greater than 25 µg/mL in [7]. In addition, the Inhibitory zone in series [8] (present substance 250 mcg/ml) is 20.5 mm; in series [8] (present substance 500 mcg/ml) it was 22.5 mm; in [8] (present substance 1,000 mcg/ml) it was 24.5 mm. Moreover, the “Solubility in acetone, ethyl acetate and chloroform” value in the series “Solubility in solvents” (acetone, ethyl acetate and chloroform) is given as “substantially insoluble”. Besides, the “Solubility in water and methanol” value in “Solubility in solvents” is reported as “Soluble”. Further, the “rate of decomposition with dehydropeptidase” value in the series with dehydropeptidase is reported as 2.5×10^-3.

`CC(=O)NCCSC1=C(C(=O)O)N2C(=O)C(=C(C)CO)C2C1` (stereo not shown) [KA-6643-X]: the MIC in series [2] is 0.78 µg/mL (≈ 2.39 µM); against Proteus inconstants it was 3.1 µg/mL (≈ 9.5 µM); in series [4], 3.1 µg/mL (≈ 9.5 µM); in the series on Proteus vulgaris OX17 it was 0.05 µg/mL (≈ 0.153 µM); in series [5], 1.56 µg/mL (≈ 4.78 µM); in series [6] it was 0.05 µg/mL (≈ 0.153 µM). Moreover, the minimum inhibitory concentration (MIC) in [7] worked out at 0.2 µg/mL (≈ 0.613 µM). Also, the zone of inhibition at 25 µg/mL in [8] (Escherichia coli, 18 h, present substance 25 mcg/ml, No AB-PC added, read-out: Diameter of inhibitory zone) was found to be 19 mm. Moreover, in series [8] (Escherichia coli, 18 h, present substance 50 mcg/ml, No AB-PC added, read-out: Diameter of inhibitory zone), the zone of inhibition at 50 µg/mL stood at 21 mm. The “Diameter of inhibitory zone” value in series [8] (present substance 25 mcg/ml) stood at 21.5 mm; in series [8] (present substance 50 mcg/ml) it was 23.0 mm. Moreover, the “Solubility in acetone, ethyl acetate, chloroform and ether” value in “Solubility in solvents” (acetone, ethyl acetate, chloroform and ether) is “substantially insoluble”. Also, in “Solubility in solvents”, the “Solubility in water and methanol” value is recorded as “Soluble”.
